Source: patent US20240190862A1 (AMGEN INC., priority 2019, published 2024)
Where two headings read alike, the source gives them in different places.

Columns and labels:
[1] = molecular target: GDP-bound KRAS protein (aa 1-169) G12C/C118A (Homo sapiens (Human), UniProt P01116, C118A/G12C); assay: Coupled Nucleotide Exchange Assay (KRAS G12C); type: biochemical
Description: (§1) Coupled Nucleotide Exchange Assay: Purified GDP-bound KRAS protein (aa 1-169), containing either G12C or G12D, as well as C118A amino acid substitutions and an N-terminal His-tag, was pre-incubated in assay buffer (25 mM HEPES pH 7.4, 10 mM MgCl2, and 0.01% Triton X-100) with a compound dose-response titration for either 5 min or 20 hours (see Table 15). Following compound pre-incubation, purified SOS protein (aa 564-1049) and GTP (Roche 10106399001) were added to the assay wells and incubated for an additional 30 min. To determine the extent of inhibition of SOS-mediated nucleotide exchange, purified GST-tagged cRAF (aa 1-149), nickel chelate AlphaLISA acceptor beads (PerkinElmer AL108R), and AlphaScreen glutathione donor beads (PerkinElmer 6765302) were added to the assay wells and incubated for 10 minutes. The assay plates were then read on a PerkinElmer EnVision Multilabel Reader, using AlphaScreen® technology, and data were analyzed using a 4-parameter logistic model to calculate IC50 values.

[2] = molecular target: GDP-bound KRAS protein (aa 1-169) G12D/C118A (Homo sapiens (Human), UniProt P01116, C118A/G12D); assay: Coupled Nucleotide Exchange Assay (KRAS G12D); type: biochemical
Description: as §1

[3] = 5 min compound pre-incubation, read-out: GDP KRAS G12C 5 min Coupled Exchange IC50 IP
[4] = 20 h compound pre-incubation, read-out: GDP KRAS G12C 20 h Coupled Exchange IC50 IP
[5] = 20 h compound pre-incubation, read-out: GDP KRAS G12D 20 h Coupled Exchange IC50 IP

Chain of GDP-bound KRAS protein (aa 1-169) G12D/C118A (P01116 other isoform, or with tags, fused parts or gaps G12D/C118A): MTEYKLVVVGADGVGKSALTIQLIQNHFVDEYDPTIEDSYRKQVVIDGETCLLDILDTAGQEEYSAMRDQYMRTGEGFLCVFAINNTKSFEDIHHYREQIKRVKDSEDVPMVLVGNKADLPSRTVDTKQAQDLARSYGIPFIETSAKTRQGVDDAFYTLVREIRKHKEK
Chain of GDP-bound KRAS protein (aa 1-169) G12C/C118A (P01116 other isoform, or with tags, fused parts or gaps G12C/C118A): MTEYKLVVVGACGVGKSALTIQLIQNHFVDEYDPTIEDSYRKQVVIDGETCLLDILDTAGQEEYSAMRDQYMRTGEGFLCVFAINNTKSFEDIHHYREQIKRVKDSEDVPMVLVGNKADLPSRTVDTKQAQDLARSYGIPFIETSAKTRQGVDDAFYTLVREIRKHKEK

| SMILES | IC50 [1, 3] [µM] | IC50 [1, 4] [µM] | IC50 [2, 5] [µM] | IC50 ([1]; GDP KRAS G12C 5 min Coupled Exchange IC50 IP, 5 min compound pre-incubation) [µM] | IC50 ([1]; GDP KRAS G12C 20 h Coupled Exchange IC50 IP, 20 h compound pre-incubation) [µM] | IC50 [2] [µM] |
| --- | --- | --- | --- | --- | --- | --- |
| Cc1ccnc(C(C)C)c1-n1c(=O)nc(N2CCN(C(=O)COc3c(F)c(F)cc(F)c3F)C[C@@H]2C)c2cc(Cl)c(-c3ccccc3F)nc21 [Example 9, (S)-6-chloro-7-(2-fluorophenyl)-1-(2-isopropyl-4-methylpyridin-3-yl)-4-(2-methyl-4-(2-(2,3,5,6-tetrafluorophenoxy)acetyl)piperazin-1-yl)pyrido[2,3-d]pyrimidin-2(1H)-one] | 33.9 | 2.45 | > 250 | – | – | – |
| Cc1ccnc(C(C)C)c1-n1c(=O)nc(N2CCN(C(=O)[C@H]3O[C@@H]3C)C[C@@H]2C)c2cc(Cl)c(-c3ccccc3F)nc21 (mixture of isomers) [Example 17, 6-Chloro-7-(2-fluorophenyl)-1-(2-isopropyl-4-methylpyridin-3-yl)-4-((S)-2-methyl-4-((2R,3S)-3-methyloxirane-2-carbonyl)piperazin-1-yl)pyrido[2,3-d]pyrimidin-2(1H)-one and 6-chloro-7-(2-fluorophenyl)-1-(2-isopropyl-4-methylpyridin-3-yl)-4-((S)-2-methyl-4-((2S,3R)-3-methyloxirane-2-carbonyl)piperazin-1-yl)pyrido[2,3-d]pyrimidin-2(1H)-one] | 17.8 | 0.096 | > 250 | – | – | – |
| Cc1ccnc(C(C)C)c1-n1c(=O)nc(N2CCN(C(=O)CF)C[C@@H]2C)c2cc(Cl)c(-c3ccccc3F)nc21 [Example 2, (S)-6-Chloro-4-(4-(2-fluoroacetyl)-2-methylpiperazin-1-yl)-7-(2-fluorophenyl)-1-(2-isopropyl-4-methylpyridin-3-yl)pyrido[2,3-d]pyrimidin-2(1H)-one] | – | – | – | > 250 | 13.4 | > 250 |
| Cc1ccnc(C(C)C)c1-n1c(=O)nc(N(C)C2CN(C(=O)C3CO3)C2)c2cc(Cl)c(-c3ccccc3F)nc21 (centres unmarked) [Example 29] | 13.8 | 0.227 | > 250 | – | – | – |
| Cc1ccnc(C(C)C)c1-n1c(=O)nc(N2CCN(C(=O)COc3ccccc3)C[C@@H]2C)c2cc(Cl)c(-c3ccccc3F)nc21 [Example 6, (S)-6-Chloro-7-(2-fluorophenyl)-1-(2-isopropyl-4-methylpyridin-3-yl)-4-(2-methyl-4-(2-phenoxyacetyl)piperazin-1-yl)pyrido[2,3-d]pyrimidin-2(1H)-one] | > 250 | 131 | > 250 | – | – | – |
| Cc1ccnc(C(C)C)c1-n1c(=O)nc(N2CCN(C(=O)COc3c(F)cc(F)cc3F)C[C@@H]2C)c2cc(Cl)c(-c3ccccc3F)nc21 [Example 11, (S)-6-Chloro-7-(2-fluorophenyl)-1-(2-isopropyl-4-methylpyridin-3-yl)-4-(2-methyl-4-(2-(2,4,6-trifluorophenoxy)acetyl)piperazin-1-yl)pyrido[2,3-d]pyrimidin-2(1H)-one] | 69.8 | 5.45 | > 250 | – | – | – |
| Cc1ccnc(C(C)C)c1-n1c(=O)nc(N2CCC3(CC2)CN(C(=O)[C@H]2CO2)C3)c2cc(Cl)c(-c3ccccc3F)nc21 [Example 25, (R)-6-chloro-7-(2-fluorophenyl)-1-(2-isopropyl-4-methylpyridin-3-yl)-4-(2-(oxirane-2-carbonyl)-2,7-diazaspiro[3.5]nonan-7-yl)pyrido[2,3-d]pyrimidin-2(1H)-one] | – | 7.15 | > 250 | – | – | – |
| Cc1ccnc(C(C)C)c1-n1c(=O)nc(N2CCN(C(=O)COc3cccc(F)c3F)C[C@@H]2C)c2cc(Cl)c(-c3ccccc3F)nc21 [Example 12, (S)-6-Chloro-7-(2-fluorophenyl)-1-(2-isopropyl-4-methylpyridin-3-yl)-4-(2-methyl-4-(2-(2,3-difluorophenoxy)acetyl)piperazin-1-yl)pyrido[2,3-d]pyrimidin-2(1H)-one] | 35.7 | 2.02 | > 250 | – | – | – |
| Cc1ccnc(C(C)C)c1-n1c(=O)nc(N2CCN(C(=O)[C@@H]3CO3)C[C@@H]2C)c2cc(Cl)c(-c3ccccc3F)nc21 [Example 15, 6-Chloro-7-(2-fluorophenyl)-1-(2-isopropyl-4-methylpyridin-3-yl)-4-((S)-2-methyl-4-((S)-oxirane-2-carbonyl)piperazin-1-yl)pyrido[2,3-d]pyrimidin-2(1H)-one] | 74.1 | 0.83 | > 250 | – | – | – |
| Cc1ccnc(C(C)C)c1-n1c(=O)nc(N2CC(NC(=O)C3CO3)C2)c2cc(Cl)c(-c3ccccc3F)nc21 (centres unmarked) [Example 27] | 4.41 | 0.018 | > 250 | – | – | – |
| Cc1ccnc(C(C)C)c1-n1c(=O)nc(N2CCN(C(=O)[C@@H]3O[C@H]3CO)C[C@@H]2C)c2cc(Cl)c(-c3ccccc3F)nc21 [Example 22, 6-Chloro-7-(2-fluorophenyl)-4-((S)-4-((2R,3S)-3-(hydroxymethyl)oxirane-2-carbonyl)-2-methylpiperazin-1-yl)-1-(2-isopropyl-4-methylpyridin-3-yl)pyrido[2,3-d]pyrimidin-2(1H)-one] | 6.26 | 0.064 | > 250 | – | – | – |
| Cc1ccnc(C(C)C)c1-n1c(=O)nc(N2CCN(C(=O)[C@@H]3O[C@H]3CN3CCCCC3)C[C@@H]2C)c2cc(Cl)c(-c3ccccc3F)nc21 [Example 21, 6-Chloro-7-(2-fluorophenyl)-1-(2-isopropyl-4-methylpyridin-3-yl)-4-((S)-2-methyl-4-((2R,3S)-3-(piperidin-1-ylmethyl)oxirane-2-carbonyl)piperazin-1-yl)pyrido[2,3-d]pyrimidin-2(1H)-one] | 1.12 | 0.005 | > 250 | – | – | – |
| Cc1ccnc(C(C)C)c1-n1c(=O)nc(N2CCN(C(=O)[C@H]3CN3)C[C@@H]2C)c2cc(Cl)c(-c3ccccc3F)nc21 [Example 14, 4-((S)-4-((R)-Aziridine-2-carbonyl)-2-methylpiperazin-1-yl)-6-chloro-7-(2-fluorophenyl)-1-(2-isopropyl-4-methylpyridin-3-yl)pyrido[2,3-d]pyrimidin-2(1H)-one] | 88.3 | 1.56 | > 250 | – | – | – |
| Cc1ccnc(C(C)C)c1-n1c(=O)nc(N2CCN(C(=O)C3CO3)[C@@H](CC#N)C2)c2cc(Cl)c(-c3ccccc3F)nc21 (stereo partly drawn) [Example 23, 2-((2S)-4-(6-Chloro-7-(2-fluorophenyl)-1-(2-isopropyl-4-methylpyridin-3-yl)-2-oxo-1,2-dihydropyrido[2,3-d]pyrimidin-4-yl)-1-(oxirane-2-carbonyl)piperazin-2-yl)acetonitrile] | > 250 | 0.431 | > 250 | – | – | – |
| Cc1ccnc(C(C)C)c1-n1c(=O)nc(N2CCC3C2CN3C(=O)C2CO2)c2cc(Cl)c(-c3ccccc3F)nc21 (centres unmarked) [Example 28, 6-Chloro-7-(2-fluorophenyl)-1-(2-isopropyl-4-methylpyridin-3-yl)-4-(6-(oxirane-2-carbonyl)-2,6-diazabicyclo[3.2.0]heptan-2-yl)pyrido[2,3-d]pyrimidin-2(1H)-one] | 193 | 0.647 | > 250 | – | – | – |
| CCOC(=O)[C@H]1O[C@@H]1C(=O)N1CCN(c2nc(=O)n(-c3c(C)ccnc3C(C)C)c3nc(-c4ccccc4F)c(Cl)cc23)[C@@H](C)C1 [Example 18, Ethyl (2S,3S)-3-((S)-4-(6-chloro-7-(2-fluorophenyl)-1-(2-isopropyl-4-methylpyridin-3-yl)-2-oxo-1,2-dihydropyrido[2,3-d]pyrimidin-4-yl)-3-methylpiperazine-1-carbonyl)oxirane-2-carboxylate] | 23.9 | 0.53 | > 250 | – | – | – |
| Cc1ccnc(C(C)C)c1-n1c(=O)nc(N2CCN(C(=O)COc3c(Cl)cccc3Cl)C[C@@H]2C)c2cc(Cl)c(-c3ccccc3F)nc21 [Example 7, (S)-6-Chloro-4-(4-(2-(2,6-dichlorophenoxy)acetyl)-2-methylpiperazin-1-yl)-7-(2-fluorophenyl)-1-(2-isopropyl-4-methylpyridin-3-yl)pyrido[2,3-d]pyrimidin-2(1H)-one] | > 250 | 26.2 | > 250 | – | – | – |
| Cc1ccnc(C(C)C)c1-n1c(=O)nc(N2CCN(C(=O)CCl)C[C@@H]2C)c2cc(Cl)c(-c3ccccc3F)nc21 [Example 1, (S)-6-Chloro-4-(4-(2-chloroacetyl)-2-methylpiperazin-1-yl)-7-(2-fluorophenyl)-1-(2-isopropyl-4-methylpyridin-3-yl)pyrido[2,3-d]pyrimidin-2(1H)-one] | 1.29 | 0.026 | > 250 | – | – | – |
| Cc1ccnc(C(C)C)c1-n1c(=O)nc(N2CC[C@@H](NC(=O)C3CO3)C2)c2cc(Cl)c(-c3ccccc3F)nc21 (stereo partly drawn) [Example 26, N—((R)-1-(6-Chloro-7-(2-fluorophenyl)-1-(2-isopropyl-4-methylpyridin-3-yl)-2-oxo-1,2-dihydropyrido[2,3-d]pyrimidin-4-yl)pyrrolidin-3-yl)oxirane-2-carboxamide] | 194 | 2.99 | > 250 | – | – | – |
